From US10519132B2, “Isocorydine derivatives, preparation method and use thereof” (Lanzhou Institute of Chemical Physics, Chinese Academy of …, priority 2017, dated 2019)
Like-named read-outs stand apart in the source and are kept apart here.

Tests used:
[1] = system: human liver cancer cell strain HepG2; experiment: MTT growth inhibition on HepG2; assay type: cell-based;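 also: adherent cells in 96-well plates treated with a concentration series for 24, 48 or 72 h, MTT absorbance read at 490 nm, inhibition computed relative to untreated control wells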
Experimental: (§1) By using an MTT method, a sample solution to be tested was added to a 96-well plate in which cancer cells were adherently grown. Culturing was performed for a certain period, and the growth inhibition effect of a compound on a human cancer cell strain for primary screening was measured to determine the anti-cancer activity of the compound.
(§2) Cell culture: A cell incubator was set to conditions of 37° C., 5% CO2, and a saturated humidity, cells were cultured under these conditions, and the cell medium was a DMEM complete medium, wherein 10% fetal bovine serum, 100 IU/mL penicillin, and 100 μg/mL streptomycin were comprised.
(§3) The single cell suspension was diluted to 5×10^3/100 μL after counting, inoculated on a 96-well cell culture plate (triplicate), and adherently cultured overnight;
(§4) After 24 h of adhesion, the complete medium was discarded, 100 μL-sample-solutions to be tested having different concentrations were sequentially added to the 96-well plate according to a concentration gradient, and incubations were continued for 24 h, 48 h, and 72 h;
(§5) The culture liquid was discarded, a 0.5 mg/mL MTT diluted working liquid was added, and incubation was performed for 4 h by placing in an incubator;
(§6) The culture liquid was discarded, 100 μL of DMSO was added, low-speed oscillation was performed for 10 min by placing on a shaker, and the spectrophotometric value of each well was measured at a wavelength of 490 nm by using a microplate reader. Statistical analysis was performed and tumor cell growth inhibition rate was calculated according to the equation: Growth inhibition rate=(OD value of control group−OD value of experimental group)/OD value of control group.
(§7) Culturing was performed for a certain period, the growth inhibition effect of a compound on 3 human cancer cell strains for primary screening was measured to determine the anti-cancer activity of the compound, and a growth inhibition curve was plotted.

[2] = system: human cervical cancer Hela cell strains; experiment: MTT growth inhibition on Hela;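 also: compound exposure of 24, 48 or 72 h in DMEM with 10% fetal bovine serum, MTT absorbance read at 490 nm, inhibition calculated relative to control group OD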
Experimental: as §1, §2, §3, §4, §5, §6, §7

[3] = system: human gastric cancer cell strain MGC-803; experiment: MTT growth inhibition on MGC-803;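 also: adherent cells exposed to compound over a concentration gradient for 24, 48 and 72 h, MTT absorbance at 490 nm, inhibition relative to untreated control wells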
Experimental: as §1, §2, §3, §4, §5, §6, §7

[4] = Homo sapiens, HepG2, Table 1, MTT, read-out: IC50 HepG2
[5] = Homo sapiens, HeLa, read-out: IC50 HeLa
[6] = Homo sapiens, MGC-803, read-out: IC50 MGC-803
[7] = Homo sapiens, HepG2, read-out: IC50 HepG2
[8] = Homo sapiens, HeLa, read-out: IC50 HeLa, Table 1, MTT
[9] = Homo sapiens, MGC-803, read-out: IC50 MGC-803, Table 1, MTT

Structure (SMILES)	IC50 [1, 4] [µM]	IC50 [2, 5] [µM]	IC50 [3, 6] [µM]	IC50 [2, 8] [µM]	IC50 [3, 9] [µM]	further results
COc1cc(NC(=O)Nc2ccc(Cl)c(Cl)c2)c2c(c1O)-c1c(OC)c(OC)cc3c1C(C2)N(C)CC3 (stereo not drawn) [Compound 2, 8-(N-(3′,4′-dichloro-phenyl))-ureido-isocorydine]	28.4	21.7	30			
COc1cc(NC(=O)Nc2ccc(C)cc2)c2c(c1OC(=O)Nc1ccc(C)cc1)-c1c(OC)c(OC)cc3c1C(C2)N(C)CC3 (stereo not drawn) [Compound 3]		19.1	25.6			IC50 [1, 7]: 16.1 µM
COc1cc(NC(=O)Nc2ccc(SC)cc2)c2c(c1O)-c1c(OC)c(OC)cc3c1C(C2)N(C)CC3 (stereo not drawn) [Compound 4, 8-(N-(4′-methylsulfide-phenyl))-ureido-isocorydine]	53.2			46.6	47.8	
COc1cc(NC(=O)Nc2ccccc2Cl)c2c(c1O)-c1c(OC)c(OC)cc3c1C(C2)N(C)CC3 (stereo not drawn) [Compound 5, 8-(N-(2′-dichloro-phenyl))ureido-isocorydine]	36.7			36.9	35.2	
COc1cc(NC(=O)Nc2ccccc2Cl)c2c(c1OC(=O)Nc1ccccc1Cl)-c1c(OC)c(OC)cc3c1C(C2)N(C)CC3 (stereo not drawn) [Compound 6]		27.1	26.9			IC50 [1, 7]: 17.2 µM
COc1cc(NC(=O)Nc2ccccc2C)c2c(c1OC(=O)Nc1ccccc1C)-c1c(OC)c(OC)cc3c1C(C2)N(C)CC3 (stereo not drawn) [Compound 7]		43.9	22.8			IC50 [1, 7]: 31.4 µM
COc1cc(NC(=O)Nc2ccc(C(F)(F)F)cc2)c2c(c1O)-c1c(OC)c(OC)cc3c1C(C2)N(C)CC3 (stereo not drawn) [Compound 8, 8-(N-(4′-trifluoromethyl-phenyl))-ureido-isocorydine]	45.9			49	57.3	
COc1cc(NC(=O)Nc2ccc(C(F)(F)F)cc2)c2c(c1OC(=O)Nc1ccc(C(F)(F)F)cc1)-c1c(OC)c(OC)cc3c1C(C2)N(C)CC3 (stereo not drawn) [Compound 9]		47.7	39.3			IC50 [1, 7]: 44.1 µM
COc1cc(NC(=O)Nc2ccc(F)cc2)c2c(c1OC(=O)Nc1ccc(F)cc1)-c1c(OC)c(OC)cc3c1C(C2)N(C)CC3 (stereo not drawn) [Compound 10]		26.8	25.1			IC50 [1, 7]: 26.7 µM
COc1cc(NC(=O)c2ccc(Cl)c(C(F)(F)F)c2)c2c(c1O)-c1c(OC)c(OC)cc3c1C(C2)N(C)CC3 (stereo not drawn) [Compound 11, 8-N-(3′-trifluoromethyl-4′-chloro-benzoyl)-isocorydine]	21.5			16.6	21.9	
COc1cc(NC(=O)/C=C/c2ccccc2)c2c(c1O)-c1c(OC)c(OC)cc3c1C(C2)N(C)CC3 (stereo not drawn) [Compound 12, 8-N-trans-cinnamoyl-isocorydine]	63.4			74.5	37.9	
COc1cc(NC(=O)c2cc(Cc3n[nH]c(=O)c4ccccc34)ccc2F)c2c(c1O)-c1c(OC)c(OC)cc3c1C(C2)N(C)CC3 (stereo not drawn) [Compound 13, 8-N-[2-fluoro-5-(4-oxo-3,4-dihydrophthalazin-1-yl)methyl]benzamido isocorydine]	30.2			29.6	27.2	
COc1cc(NC(=O)c2cccnc2)c2c(c1O)-c1c(OC)c(OC)cc3c1C(C2)N(C)CC3 (stereo not drawn) [Compound 14, 8-N-nicotinamido-isocorydine]	69.8			49.6	34.7	
COc1cc(NC(=O)Nc2ccccc2)c2c(c1O)-c1c(OC)c(OC)cc3c1C(C2)N(C)CC3 (stereo not drawn) [Compound 15, 8-N-(phenyl)-ureido-isocorydine]	75.4	62.1	56.6			
COc1cc(NC(=O)Nc2ccc(N3CCC(CNC(=O)OC(C)(C)C)CC3)c(C(F)(F)F)c2)c2c(c1O)-c1c(OC)c(OC)cc3c1C(C2)N(C)CC3 (stereo not drawn) [Compound 16, 8-[3-trifluoromethyl-4-(4-methylaminoformic acid tert-butyl ester)piperidine]benzoylureido isocorydine]	18.9			22.1	23.2	
CCC(=O)NCC1CCN(c2ccc(NC(=O)Nc3cc(OC)c(O)c4c3CC3c5c(cc(OC)c(OC)c5-4)CCN3C)cc2C(F)(F)F)CC1 (stereo not drawn) [Compound 18, 8-[3-trifluoromethyl-4-(4-methylaminoformic acid propyl ester)-piperidine]benzoylureido isocorydine]	10.7			12.5	10.4	
COc1cc(NC(=O)Nc2ccc(N3CCC(NC(=O)OC(C)(C)C)CC3)c(C(F)(F)F)c2)c2c(c1O)-c1c(OC)c(OC)cc3c1C(C2)N(C)CC3 (stereo not drawn) [Compound 19, 8-N-[3′-trifluoromethyl-4′-(4″-aminoformic acid tert-butyl ester-piperidine)-phenyl]-ureido isocorydine]	25.9			26.7	28.7	
COc1cc(NC(=O)Nc2ccc(N3CCC(N)CC3)c(C(F)(F)F)c2)c2c(c1O)-c1c(OC)c(OC)cc3c1C(C2)N(C)CC3 (stereo not drawn) [Compound 20, 8-(N-(3′-trifluoromethyl-4′-(4″-amino-piperidine)-phenyl))-ureido-isocorydine]	18.6			13.7	22.3	
COC1=CC(=O)c2cc3c4c(cc(OC)c(OC)c4c2C1=O)CCN3C [TICD, isocorydione, reference compound]						IC50 ([1]; Table 2, MTT, read-out: IC50 HepG2): 40 µM; IC50 ([2]; read-out: IC50 Hela, Table 2, MTT): 31.3 µM; IC50 ([3]; read-out: IC50 MGC-803, Table 2, MTT): 49.6 µM
